Experiments:
[1] = target: DNA-PK protein complex (Homo sapiens, UniProt P78527); assay: DNA-PK kinase assay (FlashPlate, 33P-ATP); format: biochemical; details: biotin-DNA-PK peptide substrate, 5 μM ATP, 90 minutes at room temperature
Protocol: Description of the Method for the Testing of DNA-PK Inhibitors
The kinase assay is carried out in […] microtitre FlashPlates®, coated with streptavidin. 1.5 μg of the DNA-PK protein complex and […] of biotinylated substrate, for example PESQEAFADLWKK biotin-NH2 (“biotin-DNA-PK peptide”) in a total volume of 36.5 μl (34.25 mM Hepes/KOH, 7.85 mM Tris-HCl, 68.5 mM KCl, 5 μM ATP, 6.85 mM MgCl2, 0.5 mM EDTA, 0.14 mM EGTA, 0.69 mM DTT, pH 7.4), are incubated at room temperature for 90 minutes with or without test substance in a well containing 500 ng of DNA from calf thymus, 0.1 μCi of 33P-ATP and 1.8% of DMSO. The reaction is stopped by addition of 50 μl/well of 200 mM EDTA. After incubation for 30 minutes, the liquids are removed at room temperature. Each well is washed three times with 100 μl of 0.9% NaCl solution. Non-specific reaction (blank) is determined using a proprietary kinase inhibitor (10 μM). The radioactivity is measured by means of a Topcount. IC50 values calculated in RS1. Literature: Molecular Cancer Therapeutics 2003, 1257-1264; DNA-dependent protein kinase inhibitors as drug candidates for the treatment of cancer; A. Kashishian, H. Douangpanya, D. Clark, S. T. Schlachter, C. Todd Eary, J. G. Schiro, H. Huang, L. E. Burgess, E. A. Kesicki, and J. Halbrook.

[2] = test system: PI3K; assay: Cellular testing of PI3K inhibitors: P-S473-PKB Luminex assay in PC3 cells; format: cell-based; details: phosphorylation of PKB at Serin 473, 30 min incubation, serum-free
Protocol: Description of the Method for the Cellular Testing of PI3K Inhibitors The measure used for the cellular PI3K activity is the PI3K-dependent phosphorylation of PKB at Serin 473. The cellular assay for determination of the P-S473-PKB level is carried out as a Luminex assay in 96-well format in PC3 cells. […] PC3 cells are sown out with 20,000 cells per well in 100 μl medium (45% RPMI1460/45% Ham's F12/10% FCS) and incubated on the following day for 30 min with a serial dilution of the test substance (7 concentrations) under serum-free conditions. The cells are subsequently lysed using 90 μl of lysis buffer (20 mM Tris/HCl pH 8.0, 150 mM NaCl, 1% NP40, 10% glycerol, 1% phosphatase inhibitor I, 1% phosphatase inhibitor II, 0.1% protease inhibitor cocktail III, 0.01% benzonase) per well, and the lysates are separated off from insoluble cell constituents by means of centrifugation through a 96-well filter plate (0.65 μm). The lysates are incubated overnight at 4° C. with shaking with Luminex beads to which an anti-total PKB antibody is coupled. The detection is carried out on the following day by addition of a P-S473-PKB antibody and a species-specific PE-labelled secondary antibody. The detection of P-S473-PKB is carried out by measurement in a Luminex100 instrument by determination of 100 events per cavity in a measurement time of 60 sec. As pharmacological blank, the signals obtained from cells which have been treated with 3 μM wortmannin are subtracted from all other preparations. The control value used for maximum phosphorylation of PKB at S473 are the signals from cells which have been treated only with the solvent (0.3% DMSO). The values of the preparations treated with test substance are calculated from this as percent of control, and IC50 values are determined by means of RS1.

IC50 [1]	IC50 [2]	SMILES
1 to 100 nM	1 to 100 nM	COc1cc2c(cc1OC)CN(c1ncnc3ccc(-c4cnc5[nH]c(C)nc5c4)nc13)CC2 [Compound A9, 4-(6,7-dimethoxy-3,4-dihydro-1H-isoquinolin-2-yl)-6-(2-methyl-3H-imidazo[4,5-b]pyridin-6-yl)pyrido[3,2-d]pyrimidine]
1 to 100 nM		COc1cc2c(cc1OC)CN(c1ncnc3ccc(-c4cnc5[nH]ccc5c4)nc13)CC2 [Compound A7, 4-(6,7-dimethoxy-3,4-dihydro-1H-isoquinolin-2-yl)-6-(1H-pyrrolo[2,3-b]pyridin-5-yl)pyrido[3,2-d]pyrimidine]
1 to 100 nM	100 to 10000 nM	c1ccc2c(c1)CCN(c1ncnc3ccc(-c4cnc5[nH]ccc5c4)nc13)C2 [Compound A6, 4-(3,4-dihydro-1H-isoquinolin-2-yl)-6-(1H-pyrrolo[2,3-b]pyridin-5-yl)pyrido[3,2-d]pyrimidine]
1 to 100 nM	100 to 10000 nM	c1ccc2c(c1)CCN2c1ncnc2ccc(-c3cnc4[nH]ccc4c3)cc12 [Compound A1, 4-(2,3-dihydroindol-1-yl)-6-(1H-pyrrolo[2,3-b]pyridin-5-yl)quinazoline]
1 to 100 nM	100 to 10000 nM	c1ccc2c(c1)CCCN2c1ncnc2ccc(-c3cnc4[nH]ccc4c3)cc12 [Compound A3, 4-(3,4-dihydro-2H-quinolin-1-yl)-6-(1H-pyrrolo[2,3-b]pyridin-5-yl)quinazoline]
1 to 100 nM	100 to 10000 nM	Cc1nc2cc(-c3ccc4ncnc(N5CCCc6ccccc65)c4c3)cnc2[nH]1 [Compound A5, 4-(3,4-dihydro-2H-quinolin-1-yl)-6-(2-methyl-3H-imidazo-[4,5-b]pyridin-6-yl)quinazoline]
1 to 100 nM	1 to 100 nM	CCc1nc2cc(-c3ccc4ncnc(N5CCc6ccccc6C5)c4c3)cnc2[nH]1 [Compound A10, 4-(3,4-dihydro-1H-isoquinolin-2-yl)-6-(2-ethyl-3H-imidazo[4,5-b]pyridin-6-yl)quinazoline]
1 to 100 nM	1 to 100 nM	Cc1nc2cc(-c3ccc4ncnc(N5CCc6ccccc6C5)c4c3)cnc2[nH]1 [Compound A4, 4-(3,4-dihydro-1H-isoquinolin-2-yl)-6-(2-methyl-3H-imidazo[4,5-b]pyridin-6-yl)quinazoline]
1 to 100 nM	100 to 10000 nM	Cc1nc2cc(-c3ccc4ncnc(N5CCOc6ccccc65)c4c3)cnc2[nH]1 [Compound A12, 4-[6-(2-methyl-3H-imidazo[4,5-b]pyridin-6-yl)quinazolin-4-yl]-3,4-dihydro-2H-benzo-1,4-oxazine]
1 to 100 nM	100 to 10000 nM	c1ccc2c(c1)CN(c1ncnc3ccc(-c4cnc5[nH]ccc5c4)cc13)C2 [Compound A2, 4-(1,3-dihydroisoindol-2-yl)-6-(1H-pyrrolo[2,3-b]pyridin-5-yl)quinazoline]
1 to 100 nM	100 to 10000 nM	Cc1nc2cc(-c3ccc4ncnc(N5CCC(=O)c6ccccc65)c4c3)cnc2[nH]1 [Compound A13, 1-[6-(2-methyl-3H-imidazo[4,5-b]pyridin-6-yl)quinazolin-4-yl]-2,3-dihydro-1H-quinolin-4-one]
1 to 100 nM	1 to 100 nM	COc1ccc2c(c1)CN(c1ncnc3ccc(-c4cnc5[nH]c(C)nc5c4)cc13)CC2 [Compound A11, 4-(7-methoxy-3,4-dihydro-1H-isoquinolin-2-yl)-6-(2-methyl-3H-imidazo[4,5-b]pyridin-6-yl)quinazoline]
1 to 100 nM	1 to 100 nM	Cc1nc2cc(-c3ccc4ncnc(N5CCc6ccccc6C5)c4n3)cnc2[nH]1 [Compound A8, 4-(3,4-dihydro-1H-isoquinolin-2-yl)-6-(2-methyl-3H-imidazo[4,5-b]pyridin-6-yl)-pyrido[3,2-d]pyrimidine]

Reference: patent US9006255B2, “Quinazoline derivatives” (Merck Patent GmbH, priority 2010, dated 2015)
